In US20100056524A1, “Compound” (priority 2008, published 2010):
Counter-ions that a name gives are not always drawn. Like-named read-outs stand apart in the source and are kept apart here.

How the values were obtained:
NEK2a = biological target: T1, NEK2a (Homo sapiens, UniProt P51955); experiment: NEK2a protein kinase assay; format: biochemical; details: for remaining activity at 10 µM: 10 μM compound; for residual kinase activity NEK2a: 1 μm compound; for remaining activity at 1 µM: 1 μM compound
T1 construct: All protein kinases were of human origin and encoded full length proteins, unless indicated otherwise; made in house
T1 sequence (P51955 1-445): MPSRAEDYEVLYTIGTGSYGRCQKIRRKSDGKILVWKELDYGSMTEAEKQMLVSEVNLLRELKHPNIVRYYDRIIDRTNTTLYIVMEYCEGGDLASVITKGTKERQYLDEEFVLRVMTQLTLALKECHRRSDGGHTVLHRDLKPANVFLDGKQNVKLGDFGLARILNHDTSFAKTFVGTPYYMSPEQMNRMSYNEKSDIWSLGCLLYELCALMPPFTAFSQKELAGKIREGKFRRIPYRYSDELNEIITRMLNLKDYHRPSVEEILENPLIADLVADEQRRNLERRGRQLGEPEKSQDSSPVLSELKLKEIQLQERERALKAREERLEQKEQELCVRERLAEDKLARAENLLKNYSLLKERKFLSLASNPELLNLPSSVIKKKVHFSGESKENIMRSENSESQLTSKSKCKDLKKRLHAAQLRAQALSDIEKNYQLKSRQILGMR
Text: (§1) All protein kinases were of human origin and encoded full length proteins, unless indicated otherwise. They were either expressed as glutathione S-transferase (GST) fusion proteins in Escherichia Coli or as hexahistidine (His6)-tagged proteins in insect Sf21 cells. GST fusion proteins were purified by affinity chromatography on glutathione-Sepharose, and His6-tagged proteins on nickel/nitriloacetate-agarose. The procedures for expressing some of the protein kinases used herein have been detailed previously.^8,9 The following sections outline the DNA vectors synthesised and the procedures used to express and purifying protein kinases that have not been reported previously.
(§2) All assays (25.5 μl) were carried out at room temperature (21° C.) and were linear with respect to time and enzyme concentration under the conditions used. Assays were performed for 30 min using Multidrop Micro reagent dispensers (Thermo Electron Corporation, Waltham, Mass. 02454, USA) in a 96-well format. The concentration of magnesium acetate in the assays was 10 mM and the [γ-33P] ATP (800 cpm/pmol) was used at 5, 20 or 50 μM as indicated, in order to be at or below the Km for ATP for each enzyme. Protein kinases assayed at 5 μM ATP were: —ERK1, ERK8, PKBα, MARK3, Aurora C. Protein kinases assayed at 20 μM ATP were: —JNK1, PDK1, CHK1, CHK2, CDK2 and Aurora B. Protein kinases assayed at 50 μM ATP were: —MNK2, IKKepsilon and TBK1.
(§3) The assays were initiated with MgATP, stopped by addition of 5 μl of 0.5 M orthophosphoric acid and spotted on to P81 filterplates using a unifilter harvester (PerkinElmer, Boston, Mass. 02118, USA). The IC50 values of inhibitors were determined after carrying out assays at 10 different concentrations of each compound.
(§4) Unless stated otherwise, enzymes were diluted in 50 mM Tris/HCl pH 7.5, 0.1 mM EGTA, 1 mg/ml BSA, 0.1% (v/v) 2-mercaptoethanol and assayed in 50 mM Tris/HCl pH 7.5, 0.1 mM EGTA, 0.1% (v/v) 2-mercaptoethanol.

CAMK1 = biological target: T2, CAMK1 (Homo sapiens, UniProt Q14012); experiment: CAMK1 protein kinase assay; format: biochemical; details: for remaining activity at 10 µM: 10 μM compound; for residual kinase activity CAMK1: 1 μm compound; for remaining activity at 1 µM: 1 μM compound
T2 construct: All protein kinases were of human origin and encoded full length proteins, unless indicated otherwise; made in house
Text: as §1, §2, §3, §4

ERK2 = biological target: T3, ERK2 (Homo sapiens, UniProt P28482); experiment: ERK2 protein kinase assay; format: biochemical; details: for remaining activity at 10 µM: 10 μM compound; for residual kinase activity ERK2: 1 μm compound; for remaining activity at 1 µM: 1 μM compound
T3 construct: All protein kinases were of human origin and encoded full length proteins, unless indicated otherwise; made in house
Text: as §1, §2, §3, §4

SRPK1 = biological target: T4, SRPK1 (Homo sapiens, UniProt Q96SB4); experiment: SRPK1 protein kinase assay; format: biochemical; details: for remaining activity at 10 µM: 10 μM compound; for residual kinase activity SRPK1: 1 μm compound; for remaining activity at 1 µM: 1 μM compound
T4 construct: All protein kinases were of human origin and encoded full length proteins, unless indicated otherwise; made in house
Text: as §1, §2, §3, §4

VEG-FR = biological target: T5, VEG-FR (Homo sapiens, UniProt P17948); experiment: VEG-FR protein kinase assay; format: biochemical; details: for remaining activity at 10 µM: 10 μM compound; for residual kinase activity VEG-FR: 1 μm compound; for remaining activity at 1 µM: 1 μM compound
T5 construct: All protein kinases were of human origin and encoded full length proteins, unless indicated otherwise; made in house
T5 sequence (P17948 784-1338 limits assumed): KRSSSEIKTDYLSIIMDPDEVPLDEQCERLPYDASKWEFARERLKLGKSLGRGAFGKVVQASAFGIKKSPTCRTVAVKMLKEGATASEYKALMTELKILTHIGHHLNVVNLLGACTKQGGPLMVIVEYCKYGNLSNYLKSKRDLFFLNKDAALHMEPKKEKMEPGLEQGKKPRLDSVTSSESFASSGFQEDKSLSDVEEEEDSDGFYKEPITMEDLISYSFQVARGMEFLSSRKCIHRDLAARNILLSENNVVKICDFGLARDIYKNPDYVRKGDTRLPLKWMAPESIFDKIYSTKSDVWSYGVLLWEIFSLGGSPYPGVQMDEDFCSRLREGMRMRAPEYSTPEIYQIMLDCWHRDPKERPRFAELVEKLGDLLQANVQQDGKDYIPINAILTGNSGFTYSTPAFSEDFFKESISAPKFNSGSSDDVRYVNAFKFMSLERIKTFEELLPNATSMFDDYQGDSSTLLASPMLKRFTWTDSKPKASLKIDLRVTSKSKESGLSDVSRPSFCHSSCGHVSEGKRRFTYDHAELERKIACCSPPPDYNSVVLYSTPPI
Text: as §1, §2, §3, §4

MAPKAP-K2 = biological target: T6, MAPKAP-K2 (Homo sapiens, UniProt P49137); experiment: MAPKAP-K2 protein kinase assay; format: biochemical; details: for remaining activity at 10 µM: 10 μM compound; for residual kinase activity MAPKAP-K2: 1 μm compound; for remaining activity at 1 µM: 1 μM compound
T6 construct: All protein kinases were of human origin and encoded full length proteins, unless indicated otherwise; made in house
Text: as §1, §2, §3, §4

MKK1 = biological target: T7, MKK1 (Homo sapiens, UniProt Q02750); experiment: MKK1 protein kinase assay; format: biochemical; details: for remaining activity at 10 µM: 10 μM compound; for residual kinase activity MKK1: 1 μm compound; for remaining activity at 1 µM: 1 μM compound
T7 construct: All protein kinases were of human origin and encoded full length proteins, unless indicated otherwise; made in house
Text: as §1, §2, §3, §4

IGF-1R = IGF-1R protein kinase assay; format: biochemical, human; details: for residual kinase activity: IGF-1R
Text: as §1, §2, §3, §4

[1] = read-out: residual kinase activity NEK2a
[2] = read-out: residual kinase activity CAMK1
[3] = read-out: residual kinase activity ERK2
[4] = read-out: residual kinase activity SRPK1
[5] = read-out: residual kinase activity VEG-FR
[6] = read-out: residual kinase activity MAPKAP-K2
[7] = read-out: residual kinase activity MKK1
[8] = NEK2a, read-out: residual kinase activity
[9] = CAMK1, read-out: residual kinase activity
[10] = ERK2, read-out: residual kinase activity
[11] = SRPK1, read-out: residual kinase activity
[12] = VEG-FR, read-out: residual kinase activity
[13] = MAPKAP-K2, read-out: residual kinase activity
[14] = MKK1, read-out: residual kinase activity

T4 sequence (Q96SB4 whole entry): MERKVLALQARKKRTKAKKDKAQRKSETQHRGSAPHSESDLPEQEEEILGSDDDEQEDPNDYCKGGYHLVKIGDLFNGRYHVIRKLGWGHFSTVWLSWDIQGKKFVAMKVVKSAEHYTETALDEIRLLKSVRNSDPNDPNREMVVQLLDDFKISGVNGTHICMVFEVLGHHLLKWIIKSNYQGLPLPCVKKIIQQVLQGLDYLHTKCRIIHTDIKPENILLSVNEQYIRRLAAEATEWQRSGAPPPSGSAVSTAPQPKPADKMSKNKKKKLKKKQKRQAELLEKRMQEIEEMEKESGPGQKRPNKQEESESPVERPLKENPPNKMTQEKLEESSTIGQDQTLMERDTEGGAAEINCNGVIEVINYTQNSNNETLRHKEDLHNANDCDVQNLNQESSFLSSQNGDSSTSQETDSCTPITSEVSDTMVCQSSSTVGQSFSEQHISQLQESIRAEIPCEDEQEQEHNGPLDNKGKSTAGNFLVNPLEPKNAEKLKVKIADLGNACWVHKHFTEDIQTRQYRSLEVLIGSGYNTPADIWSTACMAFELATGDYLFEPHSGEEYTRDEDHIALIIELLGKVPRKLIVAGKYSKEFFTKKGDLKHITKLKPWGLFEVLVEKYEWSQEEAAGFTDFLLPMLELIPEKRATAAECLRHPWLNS
T6 sequence (P49137 46-400 limits assumed): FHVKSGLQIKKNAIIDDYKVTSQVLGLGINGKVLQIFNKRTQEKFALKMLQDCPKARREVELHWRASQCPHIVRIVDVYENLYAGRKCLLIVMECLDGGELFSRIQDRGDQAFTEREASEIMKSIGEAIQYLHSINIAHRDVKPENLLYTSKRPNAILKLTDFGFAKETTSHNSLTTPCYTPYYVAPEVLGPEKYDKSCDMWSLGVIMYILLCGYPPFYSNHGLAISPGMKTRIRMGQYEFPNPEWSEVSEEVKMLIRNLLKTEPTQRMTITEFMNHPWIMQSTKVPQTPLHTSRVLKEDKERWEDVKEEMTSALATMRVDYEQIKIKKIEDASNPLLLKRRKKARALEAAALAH
T3 sequence (P28482 2-360): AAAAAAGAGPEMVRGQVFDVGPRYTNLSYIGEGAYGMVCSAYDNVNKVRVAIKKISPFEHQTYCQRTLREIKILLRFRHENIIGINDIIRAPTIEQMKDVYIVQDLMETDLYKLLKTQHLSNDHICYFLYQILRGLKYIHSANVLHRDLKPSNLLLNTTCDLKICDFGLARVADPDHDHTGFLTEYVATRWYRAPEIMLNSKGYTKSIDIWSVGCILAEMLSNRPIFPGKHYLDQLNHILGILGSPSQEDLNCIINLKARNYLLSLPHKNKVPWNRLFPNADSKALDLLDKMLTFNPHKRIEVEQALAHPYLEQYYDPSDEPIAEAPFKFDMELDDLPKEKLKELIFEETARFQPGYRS
T7 sequence (Q02750 whole entry): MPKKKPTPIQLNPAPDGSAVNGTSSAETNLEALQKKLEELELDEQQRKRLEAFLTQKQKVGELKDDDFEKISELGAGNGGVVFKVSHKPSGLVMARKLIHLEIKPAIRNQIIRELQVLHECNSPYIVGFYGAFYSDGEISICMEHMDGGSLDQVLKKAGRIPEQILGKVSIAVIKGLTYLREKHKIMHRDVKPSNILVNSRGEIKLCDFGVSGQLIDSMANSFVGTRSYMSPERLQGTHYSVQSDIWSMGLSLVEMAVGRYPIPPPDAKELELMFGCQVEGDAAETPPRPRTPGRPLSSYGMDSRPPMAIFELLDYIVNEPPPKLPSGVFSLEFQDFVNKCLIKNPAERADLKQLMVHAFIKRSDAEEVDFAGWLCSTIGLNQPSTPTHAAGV
T2 sequence (Q14012 whole entry): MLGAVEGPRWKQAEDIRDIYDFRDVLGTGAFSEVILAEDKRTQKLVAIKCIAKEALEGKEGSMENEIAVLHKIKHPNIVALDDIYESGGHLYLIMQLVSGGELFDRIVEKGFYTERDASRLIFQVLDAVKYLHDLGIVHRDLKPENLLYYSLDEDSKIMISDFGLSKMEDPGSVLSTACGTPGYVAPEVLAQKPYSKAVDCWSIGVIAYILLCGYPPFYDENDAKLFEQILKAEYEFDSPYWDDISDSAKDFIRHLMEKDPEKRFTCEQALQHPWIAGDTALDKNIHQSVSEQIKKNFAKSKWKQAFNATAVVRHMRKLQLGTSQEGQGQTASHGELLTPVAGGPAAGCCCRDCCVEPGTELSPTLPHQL

| Structure (SMILES) | remaining activity at 10 µM (NEK2a; [1]) [%] | residual kinase activity NEK2a (NEK2a) [%] | remaining activity at 10 µM (CAMK1; [2]) [%] | residual kinase activity CAMK1 (CAMK1) [%] | remaining activity at 1 µM (NEK2a; [8]) [%] | remaining activity at 10 µM (NEK2a; [8]) [%] | remaining activity at 1 µM (CAMK1; [9]) [%] | remaining activity at 10 µM (CAMK1; [9]) [%] | remaining activity at 1 µM (ERK2; [10]) [%] | remaining activity at 10 µM (ERK2; [10]) [%] | remaining activity at 1 µM (SRPK1; [11]) [%] | remaining activity at 10 µM (SRPK1; [11]) [%] | remaining activity at 1 µM (VEG-FR; [12]) [%] | remaining activity at 10 µM (VEG-FR; [12]) [%] | remaining activity at 1 µM (MAPKAP-K2; [13]) [%] | remaining activity at 10 µM (MAPKAP-K2; [13]) [%] | remaining activity at 1 µM (MKK1; [14]) [%] | remaining activity at 10 µM (MKK1; [14]) [%] | residual kinase activity (IGF-1R; 1 μM compound) [%] | residual kinase activity (IGF-1R; 10 μM compound) [%] | also measured |
| --- | --- | --- | --- | --- | --- | --- | --- | --- | --- | --- | --- | --- | --- | --- | --- | --- | --- | --- | --- | --- | --- |
| O=C(NCCCNc1nc(Nc2cccc(F)c2)ncc1Br)C1CCC1 [Compound A, cyclobutanecarboxylic acid {3-[5-bromo-2-(3-fluoro-phenylamino)-pyrimidin-4-ylamino]-propyl}-amide, reference compound] | 57 | 95 | 25 | 54 |  |  |  |  |  |  |  |  |  |  |  |  |  |  |  |  | remaining activity at 10 µM (ERK2; [3]): 10%; residual kinase activity ERK2 (ERK2): 49%; remaining activity at 10 µM (SRPK1; [4]): 31%; residual kinase activity SRPK1 (SRPK1): 69%; remaining activity at 10 µM (VEG-FR; [5]): 4%; residual kinase activity VEG-FR (VEG-FR): 4%; remaining activity at 10 µM (MAPKAP-K2; [6]): 48%; residual kinase activity MAPKAP-K2 (MAPKAP-K2): 82%; remaining activity at 10 µM (MKK1; [7]): 2%; residual kinase activity MKK1 (MKK1): 15%; residual kinase activity IGF-1R (IGF-1R; 10 μM compound): 21%; residual kinase activity IGF-1R (IGF-1R; 1 μm compound): 78% |
| O=C(NCCCNc1nc(Nc2cccc(F)c2)ncc1C1CC1)C1CCC1 [Example 23, Cyclobutanecarboxylic acid {3-[5-cyclopropyl-2-(3-fluoro-phenylamino)-pyrimidin-4-ylamino]-propyl}-amide] | 65 | 91 | 66 | 77 | 91 | 65 | 77 | 66 | 107 | 108 | 75 | 40 | 81 | 27 | 77 | 86 | 52 | 25 | 86 | 87 | remaining activity at 10 µM (ERK2; [3]): 108%; residual kinase activity ERK2 (ERK2): 107%; remaining activity at 10 µM (SRPK1; [4]): 40%; residual kinase activity SRPK1 (SRPK1): 75%; remaining activity at 10 µM (VEG-FR; [5]): 27%; residual kinase activity VEG-FR (VEG-FR): 81%; remaining activity at 10 µM (MAPKAP-K2; [6]): 86%; residual kinase activity MAPKAP-K2 (MAPKAP-K2): 77%; remaining activity at 10 µM (MKK1; [7]): 25%; residual kinase activity MKK1 (MKK1): 52%; residual kinase activity IGF-1R (IGF-1R; 10 μM compound): 87%; residual kinase activity IGF-1R (IGF-1R; 1 μm compound): 86% |
| O=C(NCCCNc1nc(Nc2cccc(N3CCCC3=O)c2)ncc1C1CC1)c1cccs1 [Example 47, Thiophene-2-carboxylic acid (3-{5-cyclopropyl-2-[3-(2-oxo-pyrrolidin-1-yl)-phenylamino]-pyrimidin-4-ylamino}-propyl)-amide. Hydrochloride salt] |  |  |  |  | 104 | 79 | 91 | 73 | 90 | 66 | 81 | 78 | 12 | 34 | 75 | 95 | 33 | 17 | 39 | 35 |  |
| O=C(NCCCNc1nc(Nc2cccnc2)ncc1C1CC1)c1cccs1 [Example 50, Thiophene-2-carboxylic acid {3-[5-cyclopropyl-2-(pyridin-3-ylamino)-pyrimidin-4-ylamino]-propyl}-amide] |  |  |  |  | 93 | 71 | 94 | 71 | 106 | 62 | 84 | 57 | 78 | 20 | 88 | 85 | 44 | 24 | 47 | 32 |  |
